This is an account of results in US20230065079A1, “FATTY ACID DERIVATIVE LABELED WITH POSITRON-EMITTING RADIONUCLIDE” (ASTELLAS PHARMA INC., priority 2020, published 2023).

The series in a line: PET test using normal cynomolgus monkey (heart contrast PET, SUV in myocardium and bone ROI). The following applies: for SUV (bone) 20 minutes / SUV (bone) 60 minutes / SUV (bone) 120 minutes / SUV (bone) 180 minutes / SUV (myocardium) 20 minutes / SUV (myocardium) 60 minutes / SUV (myocardium) 120 minutes / SUV (myocardium) 180 minutes: male normal cynomolgus monkey, about 300 MBq i.v.; for SUV (bone) 20 minutes / SUV (bone) 60 minutes / SUV (bone) 120 minutes / SUV (bone) 180 minutes: ROI bone (near the spine), n.d. = target organ cannot be confirmed in the image and ROI cannot be set; for SUV (bone) 20 minutes / SUV (myocardium) 20 minutes: 0 to 20 minutes after administration; for SUV (bone) 60 minutes / SUV (myocardium) 60 minutes: 20-minute section ending 60 minutes after administration; for SUV (bone) 120 minutes / SUV (myocardium) 120 minutes: 20-minute section ending 120 minutes after administration; for SUV (bone) 180 minutes / SUV (myocardium) 180 minutes: 160 to 180 minutes after administration; for SUV (myocardium) 20 minutes / SUV (myocardium) 60 minutes / SUV (myocardium) 120 minutes / SUV (myocardium) 180 minutes: ROI myocardium, Examples 1 case, Reference Example 15 average ± standard error of 3 cases. Format: in vivo. From the text:
Solutions containing each compound prepared in Examples 1 to 7 and Reference Example 15 ([^18F]FTO) were used to perform a heart contrast PET test using normal cynomolgus monkeys.
For performing non-invasive PET imaging, in a state in which a male cynomolgus monkey was anesthetized with inhalation anesthetic isoflurane, the monkey was held at a supine body position on a PET camera SHR17000 (manufactured by Hamamatsu Photonics K.K.), the solution containing each compound (about 300 MBq) was administered from the lower extremity vein, and continuous imaging was performed for 180 minutes or more after the administration. The PET images were reconstructed by dynamic row-action maximum likelihood algorithm (DRAMA) and average images per each time section which is divided every 20 minutes from 0 minutes to 180 minutes after the administration, are obtained. Then, the region of interest (ROI) was set in the myocardium region or bone (near the spine), and the accumulation (standardized uptake value (SUV)) of each compound was calculated as {radioactivity count in the ROI (MBq/cc)/[dose (MBq)/body weight (g)]}.
The SUV values quantified by setting the ROI for the myocardium and the bone of each compound are shown in Tables 10 and 11 as SUV (myocardium) and SUV (bone). […] A case where the target organ cannot be confirmed in the image and the ROI cannot be set is denoted as n.d. The time in the Tables represents an end point of each time section, for example, “20 minutes” represents the SUV value from 0 minutes to 20 minutes after, and “180 minutes” represents the SUV value from 160 minutes to 180 minutes after the administration. In addition, Maximum Intensity Projection (MIP) PET images 60 minutes and 180 minutes after the administration of the compounds of Reference Example 15 ([…]) and Example 6 are shown in FIGS. 1A to 1D.

In the case of `CC/C=C\C/C=C\C/C=C\CC([18F])CCSCCC(=O)O` (stereo not shown) [Example 1, 3-{[(5Z,8Z,11Z)-3-[lSF]fluorotetradeca-5,8,11-trien-1-yl]sulfanyl}propanoic acid], the “SUV (bone) 20 minutes” value is given as 0.87, the “SUV (bone) 60 minutes” value is given as 0.69, the “SUV (bone) 120 minutes” value was 0.75 and the “SUV (bone) 180 minutes” value is given as 0.79. Besides, the “SUV (myocardium) 20 minutes” value is 4.87, the “SUV (myocardium) 60 minutes” value is listed as 4.13, the “SUV (myocardium) 120 minutes” value is 3.21 and the “SUV (myocardium) 180 minutes” value is listed as 2.80.
As to `CCCCC/C=C\C/C=C\CC([18F])CCSCCC(=O)O` (stereo not shown) [Example 3, 3-{[(5Z,8Z)-3-[^18F]fluorotetradeca-5,8-dien-1-yl]sulfanyl}propanoic acid], the “SUV (bone) 20 minutes” value is given as 2.12, the “SUV (bone) 60 minutes” value came out at 2.00, the “SUV (bone) 120 minutes” value is on record as 2.07 and the “SUV (bone) 180 minutes” value is recorded as 2.08. In addition, the “SUV (myocardium) 20 minutes” value is 5.75, the “SUV (myocardium) 60 minutes” value is 3.20, the “SUV (myocardium) 120 minutes” value was 2.80 and the “SUV (myocardium) 180 minutes” value was determined as 2.41.
Turning to `CCCCCCCCCC([18F])CCSCCC(=O)O` (stereo not shown) [Example 2, 3-[(3-[^18F]fluorododecyl)sulfanyl]propanoic acid], the “SUV (bone) 20 minutes” value came out at 1.40, the “SUV (bone) 60 minutes” value was determined as 1.05, the “SUV (bone) 120 minutes” value is given as 1.34 and the “SUV (bone) 180 minutes” value came to 1.14. The “SUV (myocardium) 20 minutes” value is given as 7.40, the “SUV (myocardium) 60 minutes” value stood at 7.53, the “SUV (myocardium) 120 minutes” value is on record as 6.74 and the “SUV (myocardium) 180 minutes” value came out at 5.92.
Consider `CCCCCCCC/C=C/CC([18F])CCSCCC(=O)O` (stereo not shown) [Example 5, 3-{[(5E)-3-[^18F]fluorotetradec-5-en-1-yl]sulfanyl}propanoic acid], for which the “SUV (bone) 20 minutes” value is 1.45, the “SUV (bone) 60 minutes” value was 1.36, the “SUV (bone) 120 minutes” value is given as 1.28 and the “SUV (bone) 180 minutes” value is 1.40. The “SUV (myocardium) 20 minutes” value is 6.84, the “SUV (myocardium) 60 minutes” value turned out to be 6.13, the “SUV (myocardium) 120 minutes” value came to 5.16 and the “SUV (myocardium) 180 minutes” value is listed as 5.09.
Regarding `CCCCCCCCC1CC1CC([18F])CCSCCC(=O)O` (stereo not shown) [Example 6, 3-{[3-[^18F]fluoro-4-(2-octylcyclopropyl)butyl]sulfanyl}propanoic acid], the “SUV (myocardium) 20 minutes” value turned out to be 7.74, the “SUV (myocardium) 60 minutes” value is on record as 6.24, the “SUV (myocardium) 120 minutes” value was found to be 4.80 and the “SUV (myocardium) 180 minutes” value is listed as 3.98. Also, for the setting “PET, normal cynomolgus monkey, result in words”, the “non-specific accumulation to the bone” value is “not detected at all”.
`O=C(O)CCSCCCC/C=C\CCCCCCCC[18F]` [Reference Example 15, 3-{[(5Z)-14-[^18F]fluorotetradec-5-en-1-yl]sulfanyl}propanoic acid, reference compound]: the “SUV (bone) 20 minutes” value is reported as 1.42 ± 0.10, the “SUV (bone) 60 minutes” value is given as 2.27 ± 0.13, the “SUV (bone) 120 minutes” value came out at 3.82 ± 0.60 and the “SUV (bone) 180 minutes” value was 5.05 ± 0.99. Further, the “SUV (myocardium) 20 minutes” value is 6.45 ± 0.59, the “SUV (myocardium) 60 minutes” value is recorded as 6.54 ± 0.51, the “SUV (myocardium) 120 minutes” value came out at 5.90 ± 0.58 and the “SUV (myocardium) 180 minutes” value amounted to 5.21 ± 0.59.
Regarding `CCCCCCCCC([18F])CCSCCCCC(=O)O` (stereo not shown) [Example 7, 5-[(3-[^18F]fluoroundecyl)sulfanyl]pentanoic acid], the “SUV (bone) 20 minutes” value amounted to 1.87, the “SUV (bone) 60 minutes” value is given as 3.41, the “SUV (bone) 120 minutes” value is given as 5.11 and the “SUV (bone) 180 minutes” value is given as 6.36. The “SUV (myocardium) 20 minutes” value amounted to 11.6, the “SUV (myocardium) 60 minutes” value is 11.4, the “SUV (myocardium) 120 minutes” value stood at 10.0 and the “SUV (myocardium) 180 minutes” value is reported as 8.44.
In the case of `CCCCCCCCCCCC([18F])CCSCCC(=O)O` (stereo not shown) [Example 4, 3-[(3-[^18F]fluorotetradecyl)sulfanyl]propanoic acid], the “SUV (bone) 20 minutes” value amounted to 1.57, the “SUV (bone) 60 minutes” value was found to be 1.13, the “SUV (bone) 120 minutes” value is reported as 1.27 and the “SUV (bone) 180 minutes” value amounted to 1.51. Besides, the “SUV (myocardium) 20 minutes” value was 6.65, the “SUV (myocardium) 60 minutes” value was determined as 5.44, the “SUV (myocardium) 120 minutes” value turned out to be 4.38 and the “SUV (myocardium) 180 minutes” value is listed as 3.92.
